According to paper PMC3035770 (Biochemistry, 2011):
Like-named read-outs stand apart in the source and are kept apart here. Blank lines part the entries; values can stand above or below the compound they belong to.

Key:
[1] = target: T1, PKR (double-stranded RNA-activated protein kinase) (Homo sapiens, UniProt P19525); test: radiolabeled ATP binding, ZipTip-C4 separation
[2] = target: bovine serum albumin (BSA) (Bos taurus, UniProt P02769); test: fluorescence polarization, direct titration; assay type: binding
[3] = target: T1, PKR (double-stranded RNA-activated protein kinase); test: fluorescence polarization, direct titration; assay type: binding
PKR (Homo sapiens) [4] = target: PKR (Homo sapiens) (UniProt P19525); conditions: cited from earlier work
PKR (Homo sapiens) [5] = target: PKR (Homo sapiens) (UniProt P19525); conditions: cited from earlier work; remark: listed apart in the source
PKR (Homo sapiens) [6] = target: PKR (Homo sapiens) (UniProt P19525); conditions: cited from earlier work; remark: listed apart in the source

Chain of bovine serum albumin (BSA) (P02769 25-607): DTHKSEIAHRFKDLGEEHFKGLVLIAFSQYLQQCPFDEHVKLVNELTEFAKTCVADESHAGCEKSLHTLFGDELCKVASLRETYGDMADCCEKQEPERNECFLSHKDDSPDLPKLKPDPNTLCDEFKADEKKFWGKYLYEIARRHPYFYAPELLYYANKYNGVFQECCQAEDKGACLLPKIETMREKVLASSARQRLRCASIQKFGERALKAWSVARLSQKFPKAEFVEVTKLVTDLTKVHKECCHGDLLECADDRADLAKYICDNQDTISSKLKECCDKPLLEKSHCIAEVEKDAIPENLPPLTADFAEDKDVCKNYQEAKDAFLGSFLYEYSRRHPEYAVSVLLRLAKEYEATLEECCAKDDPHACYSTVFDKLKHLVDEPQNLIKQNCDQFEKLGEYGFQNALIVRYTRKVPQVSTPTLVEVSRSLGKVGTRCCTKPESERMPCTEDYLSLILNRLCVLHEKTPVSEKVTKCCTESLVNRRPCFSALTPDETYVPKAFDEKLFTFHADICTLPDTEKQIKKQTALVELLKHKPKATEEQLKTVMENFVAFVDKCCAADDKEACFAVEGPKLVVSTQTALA

Compound: Nc1ncnc2c1ncn2[C@@H]1O[C@H](COP(=O)(O)OP(=O)(O)OP(=O)(O)O)[C@@H](O)[C@H]1O [ATP]
% bound [1]: 16.61 % bound

Kd [2]: 29.2 ± 1.85 nM
Kd [3]: 23.2 ± 1.28 nM
Compound: CC1=CC(C)=[N+]2C1=Cc1ccc(CCCCCCCCCCCCCCCC(=O)O)n1[B-]2(F)F [Bodipy-C16, 4,4-difluoro-5,7-dimethyl-4-bora-3a,4a-diaza-s-indacene-3-hexadecanoic acid]

Compound: PKR (from UniProt P19525)
Kd (PKR (Homo sapiens) [4]): 20 µM
Kd (PKR (Homo sapiens) [5]): 500 µM
Kd (PKR (Homo sapiens) [6]): 75 µM
